For data set [1], the system named is P. falciparum multidrug-resistant line (Dd2). The data set can be described thus: P. falciparum growth inhibition assay ([3H]-hypoxanthine isotopic microtest), Dd2 line. In kind it is cell-based. The note with it: Plasmodium falciparum, read-out: Mean IC50 ± SD, Dd2.
Experimental: (§1) P. falciparum growth inhibition assays were carried out using an isotopic microtest, as previously described [16]. […] The final concentration of DMSO vehicle was <0.5% in all assay wells (non-toxic). After 48 h cells were harvested onto 1450 MicroBeta filter mats (PerkinElmer, Waltham, Massachusetts, USA) and [^3H] incorporation determined using a 1450 MicroBeta liquid scintillation counter. Percentage inhibition of growth compared to matched DMSO controls was determined and IC50 values were calculated using linear interpolation of inhibition curves [17]. The mean IC50 or % inhibition (±SD) was calculated for three independent experiments, each carried out in triplicate.
Data set [2] relates to neonatal foreskin fibroblast (NFF) cells. The data set can be described thus: Mammalian toxicity using human neonatal foreskin fibroblast cells. It counts as cell-based. The note with it: for IC50: Homo sapiens, NFF, read-out: Mean IC50 ± SD, NFF; for SI (selectivity index = NFF cell-line IC50/P. falciparum IC50): range over 3D7 and Dd2 lines.
The test system of data set [3] is P. falciparum chloroquine-sensitive line (3D7). The data set can be described thus: P. falciparum growth inhibition assay ([3H]-hypoxanthine isotopic microtest), 3D7 line. In kind it is cell-based, Plasmodium falciparum. The following applies: for IC50: Plasmodium falciparum, read-out: Mean IC50 ± SD, 3D7; for increase in 3D7 activity on exchanging saturated system (13, 14) for unsaturated motif: 15 vs 13, 16 vs 14.
Experimental: as §1

Details of data set [4]: method as in PMID 25490858. The following applies: cited from earlier work.
On the set-up of data set [5]: method as in PMID 25490858. The following applies: cited from earlier work. This is another data set of the same source.
Details of data set [6]: method as in PMID 25490858. The following applies: subcutaneous 32 mg/kg twice daily for 4 d; cited from earlier work.
On the set-up of data set [7]: method as in PMID 25490858. The following applies: administered subcutaneously to mice; remained above this level for 8 h; cited from earlier work.
In data set [8] the test system is blood stage P. berghei. Details: method as in PMID 25490858. The note with it: mice, subcutaneous 32 mg/kg twice daily for 4 d; cited from earlier work.
In data set [9] the test system is Plasmodium falciparum. Description: In vitro P. falciparum growth inhibition (line not given). In kind it is cell-based. The following applies: 3D7 and Dd2 lines.
For data set [10], the system named is P. falciparum multidrug-resistant line (Dd2). Details: method as in PMID 24032556. The following applies: read-out: in vitro IC50, Dd2; cited from earlier work.
Data set [11] concerns P. falciparum chloroquine-sensitive line (3D7). Details: method as in PMID 24032556. The note with it: chloroquine-sensitive (3D7) P. falciparum line; read-out: in vitro IC50, 3D7; cited from earlier work.
Where [12] appears, read: P. falciparum multidrug-resistant line Dd2, 48 h, three independent experiments in triplicate.
The mark [13] stands for this setting: neonatal foreskin fibroblast cells.
Setting [14] is: P. falciparum chloroquine-sensitive line 3D7, 48 h, three independent experiments in triplicate.

The text below walks through data of publication PMC4584354, “Synthesis and Antiplasmodial Evaluation of Analogues Based on the Tricyclic Core of Thiaplakortones A–D” (Marine Drugs, 2015).

Where two headings read alike, the source gives them in different places.

Regarding `CCN(CC)CCCC(C)Nc1ccnc2cc(Cl)ccc12` (stereo not drawn) [CQ, chloroquine, reference compound], the half-inhibitory concentration (IC50) came to 0.045 ± 0.01 µM in [1] (DD2, 48 h); 36.5 µM in data set [2]; 0.0078 ± 0.0027 µM in [3] (3D7, 48 h). For the same compound, the “SI (selectivity index = NFF cell-line IC50/P. falciparum IC50)” value in data set [2] was 811.1–4679.5.
With `CC(=O)NCCc1c[nH]c2c1C(=O)C1=C(NC=CS1(=O)=O)C2=O` [Compound 8], the solubility entry in data set [4] is listed as “good”. For the same compound, the metabolic stability result in data set [5] is on record as “good”. Also, the tolerability in mice result in data set [6] is recorded as “well tolerated”. In [7], the plasma concentration was above 200 nM. Further, the “suppression of blood stage P. berghei parasitemia relative to controls” value in data set [8] is 52%.
Turning to `CCCCNC(=O)NCCc1c[nH]c2c1C(=O)C1=C(NC=CS1(=O)=O)C2=O` [Compound 9], in data set [4], the solubility entry is given as “good”. The metabolic stability entry in data set [5] is recorded as “good”. Moreover, in data set [6], the tolerability in mice result was “well tolerated”. Also, the plasma concentration in [7] was above 200 nM. For the same compound, the “suppression of blood stage P. berghei parasitemia relative to controls” value in [8] was 26%.
As to `Cc1ccc(S(=O)(=O)n2ccc3c2C(=O)C=CC3=O)cc1` [Compound 10, 1-tosyl-1H-indole-4,7-dione], the half-maximal inhibitory concentration (IC50) in data set [1] (setting [12]) is 11.1 µM; in [2] (setting [13]), 7.6 ± 1.2 µM; in data set [3] (setting [14]), 18.2 µM. In addition, the “SI (selectivity index = NFF cell-line IC50/P. falciparum IC50)” value in data set [2] is 0.4–0.7. Also, the “antiplasmodial activity” value in [9] was “essentially inactive”.
Consider `Cc1ccc(S(=O)(=O)n2ccc3c2C(=O)C2=C(NCCS2(=O)=O)C3=O)cc1` [Compound 11], for which the values for the 50% inhibitory concentration (IC50) in data set [1] (setting [12]), in data set [2] (setting [13]) and in data set [3] (setting [14]) were 0.509 ± 0.309 µM, 1.4 ± 0.7 µM and 0.546 ± 0.119 µM, respectively.
Take `Cc1ccc(S(=O)(=O)n2ccc3c2C(=O)C2=C(C3=O)S(=O)(=O)CCN2)cc1` [Compound 12]: the values for the 50% inhibitory concentration (IC50) in data set [1] (setting [12]), in data set [2] (setting [13]) and in [3] (setting [14]) were 0.607 ± 0.158 µM, 19 µM and 0.834 ± 0.089 µM, respectively. In addition, the “SI (selectivity index = NFF cell-line IC50/P. falciparum IC50)” value in data set [2] is recorded as 22.8–31.3.
For `O=C1C2=C(C(=O)c3[nH]ccc31)S(=O)(=O)CCN2` [Compound 13], the concentration for half-maximal inhibition (IC50) came out at 3.8 ± 0.4 µM in data set [1] (setting [12]), 39 µM in data set [2] (setting [13]) and 7.5 ± 0.9 µM in data set [3] (setting [14]). Besides, the “SI (selectivity index = NFF cell-line IC50/P. falciparum IC50)” value in [2] is 5.2–10.3.
As for `O=C1C2=C(NCCS2(=O)=O)C(=O)c2[nH]ccc21` [Compound 14], the IC50 in data set [1] (setting [12]) stood at 3.7 ± 0.5 µM; in data set [2] (setting [13]) it was 69.6 µM; in data set [3] (setting [14]), 6.9 ± 0.7 µM. Further, in data set [2], the “SI (selectivity index = NFF cell-line IC50/P. falciparum IC50)” value is recorded as 10.1–18.8.
As for `O=C1C2=C(C(=O)c3[nH]ccc31)S(=O)(=O)C=CN2` [Compound 15], the half-maximal inhibitory concentration (IC50) in data set [1] (setting [12]) is 0.129 ± 0.0039 µM; in data set [2] (setting [13]) it was 2.8 ± 0.4 µM; in [3] (setting [14]), 0.313 ± 0.084 µM. The “SI (selectivity index = NFF cell-line IC50/P. falciparum IC50)” value in [2] is given as 8.9–21.7. Also, the “increase in 3D7 activity on exchanging saturated system (13, 14) for unsaturated motif” value in data set [3] is 23.9 fold.
As to `O=C1C2=C(NC=CS2(=O)=O)C(=O)c2[nH]ccc21` [Compound 16], the IC50 in [1] (setting [12]) stood at 0.127 ± 0.0086 µM; in data set [2] (setting [13]) it was 4.6 ± 0.8 µM; in data set [3] (setting [14]) it was 0.252 ± 0.035 µM. Further, the “SI (selectivity index = NFF cell-line IC50/P. falciparum IC50)” value in [2] is on record as 18.2–36.2. Besides, the “increase in 3D7 activity on exchanging saturated system (13, 14) for unsaturated motif” value in data set [3] is listed as 27.3 fold.
As for `O=C1C=CC(=O)c2[nH]ccc21` [Compound 17, 1H-indole-4,7-dione], the IC50 in [1] (setting [12]) was found to be 11.5 µM; in data set [2] (setting [13]) it was 4.7 ± 0.1 µM; in data set [3] (setting [14]), 13.5 µM. Moreover, in [2], the “SI (selectivity index = NFF cell-line IC50/P. falciparum IC50)” value was 0.3–0.4. Further, the “antiplasmodial activity” value in [9] was “essentially inactive”.
For `NCCc1c[nH]c2c1C(=O)C1=C(NC=CS1(=O)=O)C2=O` [Thiaplakortone A, thiaplakortone A], the IC50 in [10] was 0.0066 µM; in [11], 0.051 µM.

By IC50 is commonly meant the concentration at which inhibition is half-maximal.
